Test results taken from patent US9511019B2, “Pharmaceutical compositions for treating IBD” (NORDIC PHARMA, priority 2009, dated 2016).

Tested on: TNBS colitis
Experiment: TNBS colitis in mice, macroscopic lesions by Wallace criteria
Assay type: in vivo, C57b16 mice
Details: for Wallace score (macroscopic lesions, scale 0 to 10): TNBS colitic mice, daily intrarectal administration from 3 days before to 4 days after induction, 5-ASA 0.5 mg, PMSB 2.34 mg/kg/day, untreated control 3.4; for action percentage in comparison to the Wallace score of untreated control: Wallace score 3.4 = 0% action, score 0 = 100% action
Description: Induction of TNBS Colitis and Evaluation of Macroscopic Lesions in the Colitis after Administration of 5-ASA, PMSB, and Synergistic Combination of 5-ASA and PMSB.
Animal experiments were performed in accredited establishments according to governmental guidelines.
Colitis induction was conducted on C57b16 mice aged of 6 weeks old. They were anesthetized for 90-120 minutes before they received intrarectal administration of TNBS (trinitrobenzene sulphonic acid) (40 μl, 150 mg/kg) dissolved in a 1:1 mixture of 0.9% NaCl with 100% ethanol. Control mice received a 1:1 mixture of 0.9% NaCl with 100% ethanol or a saline solution using the same technique. Animals were sacrificed 4 days after TNBS administration. The anti-inflammatory effect of 5-ASA and steroid was evaluated by daily administration of these compounds by intrarectal route in a final volume of 50 μl, starting 3 days before the colitis induction and during all the experiment (4 days after colitis induction). Dosage amount of 5-ASA was 0.5 mg (50 μl of 1 g/100 ml stock), 65 mM and the dosage amount of PMSB was 2.34 mg/kg/day.
The macroscopic assessments of colitis were performed blindly by two investigators. The colon of each mouse was examined under a dissecting microscope (magnification, ×5), to evaluate the macroscopic lesions according to the Wallace criteria. The score rates macroscopic lesions on a scale of from 0 to 10 based on the features reflecting inflammation, such as hyperaemia, thickening of the bowel, and extent of ulceration. The Wallace scale is defined as follows. A score of 0 represents an absence of inflammation, a score of 1, a hyperaemia without ulcerations, a score of 2 a hyperaemia with a thickening of the mucosa without ulcerations, a score of 3, one ulceration without thickening of the colonic wall, a score of 4, two or more of ulcerative or inflammatory sites, a score of 5, two or more ulcerative and inflammatory sites with an extent of more than 1 cm, and for a score of from 6 to 10, an ulcerative or inflammatory site of growing size of from 2 to 6 cm.
A score of Wallace of 3.4 thus indicates an action of 0% and a score of 0, (no lesion) indicates 100% action. […] The action that the active ingredients would be expected to have in combination was calculated according to the Colby formula, and a comparison in the actions was then observed.
The Colby formula is E=X+Y−(XxY)/100, wherein E is the expected degree of action, expressed in %, when the active ingredients 5-ASA and prednisolone PMSB are used in combination. […] It is the degree of action converted from the Wallace score obtained for the A group. […] It is the degree of action converted from the Wallace score obtained for the P group.

Row | SMILES | Wallace score (macroscopic lesions, scale 0 to 10) | action percentage in comparison to the Wallace score of untreated control [%]
1 | C[C@]12C=CC(=O)C=C1CC[C@@H]1[C@@H]2[C@@H](O)C[C@@]2(C)[C@H]1CC[C@]2(O)C(=O)COC(=O)c1cccc(S(=O)(=O)O)c1 [PMSB, prednisolone metasulfobenzoate] | 1.83 | 46
2 | Nc1ccc(O)c(C(=O)O)c1 [Formulation 5-ASA, 5-aminosalicylic acid] | 1.25 | 63
